According to patent US11505797B2, “Gene knockout of variant NRF2 for treatment of cancer” (Christiana Care Health Services, Inc., priority 2019, dated 2022):
“Also recorded” adds a separate entry of the source.

Assays:
[1] = test system: NRF2 locus (exon 4) in A549 cells; assay: TIDE indel analysis of bulk sorted eGFP+ A549 cells transfected with pX458 gRNA1 or gRNA2; assay type: cell-based, human; settings: bulk sorted eGFP+ A549 population, pX458 plasmid
Method: A549 cells were transfected at a concentration of 5×10^5 cells/100 μl in 4 mm gap cuvette (BioExpress, Kaysville, Utah, USA). NRF2 targeting pX458 constructs were separately electroporated (250 V, LV, 13 ms pulse length, 2 pulses, 1 s interval) into A549 cells using a Bio-Rad Gene Pulser XCell Electroporation System (Bio-Rad Laboratories, Hercules, Calif., USA). Cells were then recovered in 6-well plates with complete growth media at 37° C. for 72 hours prior to sorting. […] Clones were expanded and transferred to larger plates as the individual clones reached confluence, with DNA isolation occurring when cells reached confluence in a six-well plate (1×10^6 cells/mL). […]
FIG. 1B illustrates the functional domains of the NRF2 protein including the KEAP1 Binding Domain, Transactivation Domain, Repressor Binding Domain, β-TrCP Binding Domain, DNA Binding Domain and the Transcriptional Activation Domain. […] To evaluate the efficiency of CRISPR-directed NRF2 knockout in the total targeted population, eGFP+ cells were isolated as a population, and the degree of genetic disruption at the NRF2 locus in cells, transfected with either gRNA1 or gRNA2 pX458, was determined. The sorted populations were Sanger-sequenced and the resulting trace files were analyzed for the presence of indels, a marker for gene disruption. […]

[2] = test system: NRF2 knockout A549 (2-11) tumors; assay: Xenograft mouse model, NRF2 knockout A549 (2-11) tumors; assay type: in vivo, athymic nude mice; settings: tail vein day 0, 3, 6, 9; cisplatin 2 mg/kg; cisplatin 5 mg/kg + vinorelbine 5 mg/kg; carboplatin 25 mg/kg
Method: The human xenograft model was established using methodology reported previously. Kellar et al., Biomed Res. Int. […] Female athymic nude mice (Envigo, 5-6 weeks old) were used in this study. Approximately 5×10^6 cells (wild type A549 or homozygous knockout (clonal expansion 2-11)) suspended in PBS with 20% Matrigel were injected subcutaneously into right flank of each mouse. Tumor volume was measured three times a week with a digital caliper once palpable, and calculated using the formula, tumor size=ab^2/2, where ‘a’ is the larger and ‘b’ is the smaller of the two dimensions. When tumors grew up to a mean volume of around 100 mm^3, A549 tumor bearing mice or A549-2-11 tumor bearing mice were randomly divided into 7 groups (N=5 for each group) respectively and subject to dose/regimen-finding study. […] Tumor volume and body weight was closely monitored over time. After 16 days, the animals were sacrificed, with tumor removed, weighed and processed for molecular analysis. Mice were euthanized. The data were expressed as mean±SD. Student's t-test and one-way or two-way ANOVA was used to assess the significance of difference. A P value<0.05 was considered significant.
A549 xenografts were resected on day 16, snap frozen in liquid nitrogen and stored in −80° C. until usage. All immunofluorescence staining was performed as previously described. Wang et al., Investig. Opthalmology Vis. […] Briefly, tumors were embedded in Optimum Cutting Temperature (Tissue Tek, Torrance, Calif., USA) and 16-μm-thick sections were obtained with a Leica CM3050 cryostat (Leica Microsystems, Buffalo Grove, Ill., USA), and mounted on slides. Slides were fixed and incubated with blocking buffer for 1 hour at room temperature. […] Sections were washed in PBS, then mounted with SlowFade Gold antifade mountant with DAPI (Invitrogen, Carlsbad, Calif., USA). Images were obtained with a Zeiss Observer.Z1 microscope (Carl Zeiss, Inc., Gottingen, Germany). The TUNEL assay was conducted with In Situ Cell Death Detection Kit, Fluorescein (Roche, Base, Switzerland), following the manufacturer's instructions. […]

[3] = test system: NRF2 knockout A549 cells (2-11); assay: MTS cell proliferation assay, NRF2 knockout A549 cells (2-11); assay type: cell-based, human; settings: 2-11 knockout A549, increasing dosages, 72 hours; listed as Carboplatin
Method: Cell viability was evaluated using the CellTiter 96 Aqueous Non-Radioactive Cell Proliferation Assay (Promega, Madison, Wis.). A549 cell lines were plated at 2×10^3 cells per well and allowed to culture for 24 hours. The cell media was then aspirated, the cells washed with PBS, then exposed to the MTS reagent for 3 hours. After 3 hours of MTS bio-reduction by proliferating cells, the formazan product's absorbance was measured using a 450 nm filter on an Infinite 2000 PRO microplate reader (Tecan, Mannadorf, Switzerland). Cell viability after drug exposure was evaluated using the CellTiter 96 Aqueous Non-Radioactive Cell Proliferation Assay. A549 cell lines were plated at 2×10^3 cells per well and allowed to culture for 24 hours. The cells were then treated with cisplatin, carboplatin, or a combination of cisplatin and vinorelbine for three days. The cell media was then aspirated, the cells washed with PBS, then exposed to the MTS reagent for 3 hours. After 3 hours of MTS bio-reduction by proliferating cells, the formazan product's absorbance was measured using a 450 nm filter on an Infinite 2000 PRO microplate reader.

[4] = test system: wildtype NRF2 gene in the H1703 cell line; assay: TIDE indel efficiency of R34G sgRNA at various lengths in H1703 parental cells; assay type: cell-based, human; settings: for total indel efficiency: 250 pmol sgRNA to 50 pmol Cas9, 72 hours
Method: H1703 parental cells were cultured 48 hours prior to transfections and about 60-80% confluent on the day of transfection. 10^6 cells per 100 ul was used per transfection and each condition was run in duplicate.
Each CRISPR/Cas9 RNP was complexed at a 5:1 ratio of sgRNA to Cas9. 250 pmol of sgRNA was complexed at room temperature with 50 pmol of Cas9, in duplicate. The RNP complex was then transfected into H1703 parental cells using nucleofection (Lonza) with the SF Nucleofection Kit. Transfected cells were plated and allowed to recover for 72 hours. After the 72 hours, each sample of cells was collected by trypsinization and pelleted for further analysis. Cell pellets were used for genomic DNA isolation, PCR and Sanger sequencing.
It has been reported that gRNA length can affect target specificity (Fu et al., Nat. Biotechnol. 32:279-84 (2014)). The efficiency of indel formation of the various length R34G sgRNAs to the wildtype “on-target” site was evaluated. sgRNAs for each length were synthetized and complexed with purified Cas9. Replicate experiments were carried out with H1703 lung squamous cells that were transfected with each RNP, recovered for 72 hours, then analyzed for indel formation. No R34G site is present in the wildtype NRF2 gene in the H1703 cell line, therefore only minimal or background gene editing activity is expected.

Compound | indels by TIDE (NRF2 disruption) [1] | tumor growth over 16 days [2] | chemosensitivity (MTS cell proliferation) [3] | sequence remaining wildtype ([4]; first value (replicate 1)) [%] | total indel efficiency ([4]; first value (replicate 1)) [%] | sequence remaining wildtype ([4]; replicate 2) [%] | total indel efficiency ([4]; replicate 2) [%]
5′-UCGAUGUGACCGGGAAUAUCAGG-3′ (expressed or natural sequence) [gRNA1] | significant amount of indels | – | – | – | – | – | –
5′-UGAUUUAGACGGUAUGCAACAGG-3′ (expressed or natural sequence) [gRNA2] | significant amount of indels | – | – | – | – | – | –
N.N.O=C([O-])C1(C(=O)[O-])CCC1.[Pt+2] [carboplatin] | – | the same reduced proliferation and growth trend described above is reproduced; also recorded: significant reduction in tumor cell proliferation | the cell killing response reflected what was observed in the experiments using cisplatin | – | – | – | –
AAGATATAGATCTTGGAGTAAG (listed as DNA, chemistry not given here) [22 nucleotide length sgRNA] | – | – | – | 98.2 | 1.2 | 96.5 | 2.3
ATAGATCTTGGAGTAAG (listed as DNA, chemistry not given here) [17 nucleotide length sgRNA] | – | – | – | 98.0 | 1.5 | 97.7 | 1.6
CAAGATATAGATCTTGGAGTAAG (listed as DNA, chemistry not given here) [23 nucleotide length sgRNA] | – | – | – | 95.8 | 3.4 | 95.2 | 3.8
GATATAGATCTTGGAGTAAG (listed as DNA, chemistry not given here) [20 nucleotide length sgRNA] | – | – | – | 98.4 | 0.8 | 96.2 | 2.9
TATAGATCTTGGAGTAAG (listed as DNA, chemistry not given here) [18 nucleotide length sgRNA] | – | – | – | 97.4 | 1.9 | 96.6 | 2.6
